Data published in ChEMBL document CHEMBL5331140, “Discovery of IACS-52825, a Potent and Selective DLK Inhibitor for Treatment of Chemotherapy-Induced Peripheral Neuropathy” (J Med Chem, 2023).
pIC50: −log10 of the molar value.

Tests used:
[1] = target: T1, Mitogen-activated protein kinase kinase kinase 12 (Homo sapiens, UniProt Q12852); assay: Inhibition of doxycycline-inducible human DLK transfected in HEK293 cells assessed as reduction in c-Jun phosphorylation at Ser63 residue incubated for 5 hrs; type: cell-based
T1 sequence (Q12852 whole entry): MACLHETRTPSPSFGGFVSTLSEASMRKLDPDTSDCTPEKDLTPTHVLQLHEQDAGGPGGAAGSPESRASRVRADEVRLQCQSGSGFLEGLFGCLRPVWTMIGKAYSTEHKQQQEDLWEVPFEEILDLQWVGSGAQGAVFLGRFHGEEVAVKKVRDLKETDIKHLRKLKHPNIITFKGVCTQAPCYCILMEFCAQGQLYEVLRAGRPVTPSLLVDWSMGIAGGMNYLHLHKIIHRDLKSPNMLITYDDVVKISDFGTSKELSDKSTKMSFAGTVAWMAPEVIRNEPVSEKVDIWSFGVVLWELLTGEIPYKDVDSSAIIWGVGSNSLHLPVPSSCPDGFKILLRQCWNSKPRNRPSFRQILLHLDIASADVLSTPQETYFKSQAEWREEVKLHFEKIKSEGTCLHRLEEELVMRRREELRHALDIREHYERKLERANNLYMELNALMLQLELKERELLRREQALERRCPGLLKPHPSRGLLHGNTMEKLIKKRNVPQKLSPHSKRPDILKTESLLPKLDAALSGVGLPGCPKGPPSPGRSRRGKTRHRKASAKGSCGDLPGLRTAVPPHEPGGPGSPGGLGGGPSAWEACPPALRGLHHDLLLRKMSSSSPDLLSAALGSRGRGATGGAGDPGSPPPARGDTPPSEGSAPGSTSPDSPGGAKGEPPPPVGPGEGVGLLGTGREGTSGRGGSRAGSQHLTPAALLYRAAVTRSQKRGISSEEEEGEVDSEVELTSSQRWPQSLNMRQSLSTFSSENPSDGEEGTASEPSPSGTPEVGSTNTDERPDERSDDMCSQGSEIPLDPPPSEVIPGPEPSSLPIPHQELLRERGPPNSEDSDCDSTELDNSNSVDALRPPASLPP

[2] = Metabolic stability in human liver microsomes assessed as intrinsic clearance at 1 uM in presence of NADPH regenerating system measured for 45 mins by LC-MS/MS analysis; type: ADME, Microsome; conditions: read-out: CLH
[3] = Ratio of unbound drug concentration in C57BL/6 mouse brain to plasma at 0.3 mg/kg, iv measured for 24 hrs by LC-MS/MS analysis; type: ADME, organism-based; conditions: brain and plasma, read-out: K(p,uu,brain)
[4] = Half life in Beagle dog at 1 mg/kg, po or 0.3 mg/kg, iv measured for 24 hrs by LC-MS/MS analysis; type: ADME, organism-based, Canis lupus familiaris; conditions: in vivo
[5] = Half life in cynomolgus monkey at 1 mg/kg, po or 0.3 mg/kg, iv measured for 24 hrs by LC-MS/MS analysis; type: ADME, organism-based, Macaca fascicularis; conditions: in vivo
[6] = Volume of distribution at steady state in C57BL/6 mouse at 0.3 mg/kg, iv administered via tail vein and measured for 24 hrs by LC-MS/MS analysis; type: ADME, organism-based; conditions: in vivo, read-out: Vdss
[7] = Permeability in MDCK-MDR1 cells across apical to basolateral side at 5 uM incubated for 90 mins by LC-MS/MS analysis; type: ADME, cell-based, Canis lupus familiaris; conditions: dog, read-out: permeability
[8] = Permeability in MDCK-MDR1 cells across basolateral to apical side at 5 uM incubated for 90 mins by LC-MS/MS analysis; type: ADME, cell-based, Canis lupus familiaris; conditions: dog, read-out: permeability
Cytochrome P450 2C9 = Cytochrome P450 2C9 (Homo sapiens, UniProt P11712); assay: Inhibition of CYP2C9 in human liver microsomes using diclofenac as substrate incubated for 10 mins in presence of NADPH by LC-MS/MS analysis; type: ADME, Microsome
[9] = Metabolic stability in monkey hepatocytes assessed as intrinsic clearance at 2 uM measured for 120 mins by LC-MS analysis; type: ADME, cell-based, Macaca mulatta, Hepatocyte; conditions: rhesus monkey, read-out: CLH
[10] = Plasma protein binding in rat at 5 uM incubated for 5 hrs by rapid equilibrium dialysis method; type: ADME, cell-free; conditions: read-out: PPB (converted)
[11] = Plasma protein binding in dog at 5 uM incubated for 5 hrs by rapid equilibrium dialysis method; type: ADME, cell-free, Canis lupus familiaris; conditions: read-out: PPB (converted)
[12] = Volume of distribution at steady state in Sprague-Dawley rat at 3 mg/kg, po or 1 mg/kg, iv measured for 24 hrs by LC-MS/MS analysis; type: ADME, organism-based; conditions: in vivo
[13] = Volume of distribution at steady state in cynomolgus monkey at 1 mg/kg, po or 0.3 mg/kg, iv measured for 24 hrs by LC-MS/MS analysis; type: ADME, organism-based, Macaca fascicularis; conditions: in vivo
[14] = Cmax in Sprague-Dawley rat at 3 mg/kg, po or 1 mg/kg, iv measured for 24 hrs by LC-MS/MS analysis; type: ADME, organism-based; parameters: time 24 hrs, dose 3 mg/kg, route po; conditions: in vivo
[15] = AUClast in Sprague-Dawley rat at 3 mg/kg, po or 1 mg/kg, iv measured for 24 hrs by LC-MS/MS analysis; type: ADME, organism-based; parameters: time 24 hrs, dose 3 mg/kg, route po; conditions: in vivo
[16] = Bioavailability in Beagle dog at 1 mg/kg, po or 0.3 mg/kg, iv measured for 24 hrs by LC-MS/MS analysis; type: ADME, organism-based, Canis lupus familiaris; conditions: in vivo
[17] = Bioavailability in cynomolgus monkey at 1 mg/kg, po or 0.3 mg/kg, iv measured for 24 hrs by LC-MS/MS analysis; type: ADME, organism-based, Macaca fascicularis; conditions: in vivo
[18] = Toxicity in monkey measured after 7 days by IND-enabling study; parameters: species or system Macaca mulatta; conditions: rhesus monkey, in vivo, 168 h; time 7 day
[19] = target: Voltage-gated inwardly rectifying potassium channel KCNH2 (Homo sapiens, UniProt Q12809)
Voltage-gated inwardly rectifying potassium channel KCNH2, sequence (Q12809 whole entry): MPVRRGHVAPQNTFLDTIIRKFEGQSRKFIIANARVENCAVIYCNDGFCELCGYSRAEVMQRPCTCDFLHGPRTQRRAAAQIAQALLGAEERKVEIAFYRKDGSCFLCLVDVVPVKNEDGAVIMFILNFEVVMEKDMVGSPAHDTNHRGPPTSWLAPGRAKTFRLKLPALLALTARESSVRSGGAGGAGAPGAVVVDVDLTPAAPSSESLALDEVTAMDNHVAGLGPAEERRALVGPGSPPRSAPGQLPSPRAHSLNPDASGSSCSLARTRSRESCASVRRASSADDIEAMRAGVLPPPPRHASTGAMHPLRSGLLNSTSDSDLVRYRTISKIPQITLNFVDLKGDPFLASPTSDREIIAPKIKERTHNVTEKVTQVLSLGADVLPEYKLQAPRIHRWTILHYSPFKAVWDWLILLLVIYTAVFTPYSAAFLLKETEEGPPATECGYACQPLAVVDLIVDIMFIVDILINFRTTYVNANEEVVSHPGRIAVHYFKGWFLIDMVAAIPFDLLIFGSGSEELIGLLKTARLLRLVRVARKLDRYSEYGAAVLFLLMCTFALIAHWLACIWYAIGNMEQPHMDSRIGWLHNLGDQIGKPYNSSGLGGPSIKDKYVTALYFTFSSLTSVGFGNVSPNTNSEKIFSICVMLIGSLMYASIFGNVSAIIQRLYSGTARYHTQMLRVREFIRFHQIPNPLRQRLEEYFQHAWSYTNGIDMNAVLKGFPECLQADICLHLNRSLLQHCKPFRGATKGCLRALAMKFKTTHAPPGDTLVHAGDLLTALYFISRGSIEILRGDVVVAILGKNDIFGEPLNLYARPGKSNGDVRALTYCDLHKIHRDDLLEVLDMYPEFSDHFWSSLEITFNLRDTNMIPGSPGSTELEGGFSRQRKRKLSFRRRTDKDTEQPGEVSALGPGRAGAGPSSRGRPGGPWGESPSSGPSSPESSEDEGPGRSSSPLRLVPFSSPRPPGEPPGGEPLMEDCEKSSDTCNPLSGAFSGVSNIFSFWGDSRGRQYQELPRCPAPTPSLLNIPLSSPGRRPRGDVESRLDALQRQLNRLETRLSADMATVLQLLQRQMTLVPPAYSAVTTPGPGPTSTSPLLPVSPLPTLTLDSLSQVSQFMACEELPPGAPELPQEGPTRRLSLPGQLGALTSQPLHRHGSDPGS
Description: Inhibition of hERG expressed in CHO cells at -80 mV holding potential by QPatch automated electrophysiology assay

Cytochrome P450 2C9, sequence (P11712 whole entry): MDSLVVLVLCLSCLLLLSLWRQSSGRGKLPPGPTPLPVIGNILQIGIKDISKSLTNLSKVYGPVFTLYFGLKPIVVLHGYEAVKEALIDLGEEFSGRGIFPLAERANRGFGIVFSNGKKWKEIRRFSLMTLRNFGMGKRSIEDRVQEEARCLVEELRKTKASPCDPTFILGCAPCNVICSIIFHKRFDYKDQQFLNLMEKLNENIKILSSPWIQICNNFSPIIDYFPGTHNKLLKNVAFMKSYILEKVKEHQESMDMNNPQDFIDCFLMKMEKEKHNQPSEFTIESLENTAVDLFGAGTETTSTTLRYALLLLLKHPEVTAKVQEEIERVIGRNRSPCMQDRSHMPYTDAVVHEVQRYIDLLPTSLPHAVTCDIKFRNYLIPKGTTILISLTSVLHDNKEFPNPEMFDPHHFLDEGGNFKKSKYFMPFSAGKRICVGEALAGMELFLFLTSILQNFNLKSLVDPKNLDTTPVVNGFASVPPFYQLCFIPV

## Nc1ncc(-c2cn(C34CC(F)(C3)C4)c([C@@H](O)C(F)(F)F)n2)cc1OC(F)(F)F
[1]
  pIC50: 6.97
[2]
  CLint scaled at 1 µM: 3 mL/min/kg
[3]
  Kp uu at 24 h: 0.92
[4]
  half-life: 8.5 h
[5]
  half-life: 7.2 h
[6]
  Vd: 4.5 L/kg
[7]
  Papp A→B at 1.5 h, 5 µM: 43 ×10⁻⁶ cm/s
[8]
  Papp B→A at 1.5 h, 5 µM: 43 ×10⁻⁶ cm/s
Cytochrome P450 2C9
  pIC50: < 5.00
[9]
  CLint scaled at 2 µM: 23 mL/min/kg
[10]
  fraction unbound at 5 h, 5 µM: 0.118
[11]
  fraction unbound at 5 h, 5 µM: 0.053
[12]
  Vdss: 5.6 L/kg
[13]
  Vdss: 5.3 L/kg
[14]
  Cmax: 1300 nM
[15]
  AUC(0-t) at 24 h: 16.8 µM·h
[16]
  bioavailability: > 100%
[17]
  bioavailability: > 100%
[18]
  Activity: Non-Toxic
[19]
  pIC50: < 4.52
